Values after ≈ are worked out from the molar mass of the structure shown.
What was measured:
Assay in all cases: in vitro antibacterial evaluation, MIC by broth dilution
Format in all cases: cell-based
Settings in all cases: broth dilution, 18 hours at 35° C.
Staphylococcus sp. = system: Staphylococcus sp.
Description: (§1) Methods for in vitro Antibacterial Evaluation (Table 1)
(§2) The minimum inhibitory concentration (MIC), the lowest concentration of the antibiotic which inhibits growth of the test organism, is determined by the broth dilution method using Muller-Hinton II […] (Baltimore Biological Laboratories) following the recommendations of the National Committee for Clinical Laboratory Standards [Methods for dilution antimicrobial susceptibility tests for bacteria that grow aerobically, approved standard M7-A2, National Committee for Clinical Laboratory Standards, Villanova, Pa.].
(§3) An inoculum level of 5×10^5 CFU/mL, and a range of antibiotic concentrations (64-0.06 μg/mL) is used. […] The test organisms include a spectrum of Gram-positive bacteria comprised of Staphylococcus sp., Streptococcus sp. and Enterococcus sp. These organisms include recent clinical isolates that are resistant to methicillin, penicillin and/or vancomycin.

Enterococcus sp. = system: Enterococcus sp.
Description: as §1, §2, §3

Streptococcus sp. = system: Streptococcus sp.
Description: as §1, §2, §3

Escherichia coli = system: Escherichia coli
Outline: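 Broth dilution in Muller-Hinton II medium per NCCLS standard M7-A2, with an inoculum of 5×10^5 CFU/mL and antibiotic tested over 64-0.06 μg/mL. MIC was taken as the lowest concentration inhibiting visible growth.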

CC(c1ccccc1)C1NC(=O)CNC(=O)C(CO)NC(=O)C(C(O)C2CNC(=N)N2C2OC(CO)C(O)C(O)C2O)NC(=O)C(C(O)C2CNC(=N)N2)NC(=O)C(Cc2ccc3oc(-c4cccc([N+](=O)[O-])c4)nc3c2)NC1=O (stereo not drawn) [Example 26, Cyclo[3-[2-(3-nitrophenyl)-1,3-benzoxazol-5-yl)alanyl-3-(2-iminoimidazolidin-4-yl)seryl-3-(3-hexopyranosyl-2-iminoimidazolidin-4-yl)serylserylglycyl-β-methylphenylalanyl]]
MIC Staphylococcus aureus (ATCC 29213) (Staphylococcus sp.; strain ATCC 29213): 32 µg/mL (≈ 28.6 µM)
MIC Staphylococcus aureus (GC 1131) (Staphylococcus sp.; strain GC 1131): 16 µg/mL (≈ 14.3 µM)
MIC Staphylococcus aureus (GC 3051) (Staphylococcus sp.; strain GC 3051): 16 µg/mL (≈ 14.3 µM)
MIC Staphylococcus aureus (GC 3053) (Staphylococcus sp.; strain GC 3053): 16 µg/mL (≈ 14.3 µM)
MIC Staphylococcus aureus (GC 4541) (Staphylococcus sp.; strain GC 4541): 32 µg/mL (≈ 28.6 µM)
MIC Staphylococcus aureus (GC 4542) (Staphylococcus sp.; strain GC 4542): 16 µg/mL (≈ 14.3 µM)
MIC Staphylococcus aureus-SMITH (GC 4543) (Staphylococcus sp.; strain GC 4543): 16 µg/mL (≈ 14.3 µM)
MIC Staphylococcus aureus (GC 4544) (Staphylococcus sp.; strain GC 4544): 16 µg/mL (≈ 14.3 µM)
MIC Staphylococcus aureus (GC 4545) (Staphylococcus sp.; strain GC 4545): 32 µg/mL (≈ 28.6 µM)
MIC Staphylococcus haemolyticus (GC 4546) (Staphylococcus sp.; strain GC 4546): 4 µg/mL (≈ 3.58 µM)
MIC Coagulase Negative Staphylococcus (GC 4547) (Staphylococcus sp.; strain GC 4547): 8 µg/mL (≈ 7.16 µM)
MIC Coagulase Negative Staphylococcus (GC 4548) (Staphylococcus sp.; strain GC 4548): 16 µg/mL (≈ 14.3 µM)
MIC Coagulase Negative Staphylococcus (GC 4549) (Staphylococcus sp.; strain GC 4549): 4 µg/mL (≈ 3.58 µM)
MIC Coagulase Negative Staphylococcus (GC 4551) (Staphylococcus sp.; strain GC 4551): 16 µg/mL (≈ 14.3 µM)
MIC Coagulase Negative Staphylococcus (GC 6257) (Staphylococcus sp.; strain GC 6257): 4 µg/mL (≈ 3.58 µM)
MIC Enterococcus faecalis (ATCC 29212) (Enterococcus sp.; strain ATCC 29212): 32 µg/mL (≈ 28.6 µM)
MIC Enterococcus faecalis (GC 2242) (Enterococcus sp.; strain GC 2242): 64 µg/mL (≈ 57.3 µM)
MIC Enterococcus faecium (GC 2243) (Enterococcus sp.; strain GC 2243): 32 µg/mL (≈ 28.6 µM)
MIC Enterococcus faecalis (GC 2691) (Enterococcus sp.; strain GC 2691): 32 µg/mL (≈ 28.6 µM)
MIC Enterococcus faecalis (GC 3059) (Enterococcus sp.; strain GC 3059): 64 µg/mL (≈ 57.3 µM)
MIC Enterococcus faecalis (GC 4552) (Enterococcus sp.; strain GC 4552): 64 µg/mL (≈ 57.3 µM)
MIC Enterococcus faecalis (GC 4553) (Enterococcus sp.; strain GC 4553): 32 µg/mL (≈ 28.6 µM)
MIC Enterococcus faecalis (GC 4554) (Enterococcus sp.; strain GC 4554): 64 µg/mL (≈ 57.3 µM)
MIC Enterococcus faecium (GC 4556) (Enterococcus sp.; strain GC 4556): 64 µg/mL (≈ 57.3 µM)
MIC Enterococcus faecium (GC 4557) (Enterococcus sp.; strain GC 4557): 8 µg/mL (≈ 7.16 µM)
MIC Enterococcus avium (GC 4558) (Enterococcus sp.; strain GC 4558): 32 µg/mL (≈ 28.6 µM)
MIC Enterococcus faecalis (GC 6189) (Enterococcus sp.; strain GC 6189): 32 µg/mL (≈ 28.6 µM)
MIC Streptococcus pneumoniae (ATCC 6301) (Streptococcus sp.; strain ATCC 6301): 32 µg/mL (≈ 28.6 µM)
MIC Streptococcus pneumoniae (GC 1894) (Streptococcus sp.; strain GC 1894): 16 µg/mL (≈ 14.3 µM)
MIC Streptococcus pyogenes (GC 4563) (Streptococcus sp.; strain GC 4563): 8 µg/mL (≈ 7.16 µM)
MIC Streptococcus agalactiae (GC 4564) (Streptococcus sp.; strain GC 4564): 16 µg/mL (≈ 14.3 µM)
MIC Streptococcus pneumoniae (GC 4565) (Streptococcus sp.; strain GC 4565): 32 µg/mL (≈ 28.6 µM)
MIC Escherichia coli (ATCC 25922) (Escherichia coli; strain ATCC 25922): 64 µg/mL (≈ 57.3 µM)
MIC Escherichia coli (GC 4559) (Escherichia coli; strain GC 4559): 64 µg/mL (≈ 57.3 µM)
MIC Escherichia coli (GC 4560) (Escherichia coli; strain GC 4560): 16 µg/mL (≈ 14.3 µM)
